Measurements reported in patent publication US20220331391A1 (priority 2021, published 2022).
≈ marks a conversion by molar mass, not a printed value. Where “and” joins values, the source holds several entries; their conditions need not be identical. Equal entries are not always repeated. Where two headings read alike, the source gives them in different places.

Tests used:
[1] = tested on: Coccidioides posadasii, Silveira strain; set-up: species or system mice; conditions: mouse, in vivo
[2] = tested on: Coccidioides posadasii, Silveira strain; conditions: cited from earlier work
Coccidioides [3] = conditions: mouse, in vivo, 40 mg/kg/day; cited from earlier work
Coccidioides [4] = conditions: mouse, in vivo; cited from earlier work
[5] = human, in vivo, po
[6] = mouse, in vivo; cited from earlier work
[7] = mouse, in vivo, cited from earlier work; for Cmax in plasma / Tmax in plasma / t1/2 in plasma: po
[8] = dog, in vivo, po
[9] = mouse, in vivo, po, cited from earlier work
[10] = in vivo, cited from earlier work

## OC(Cn1cncn1)(Cn1cncn1)c1ccc(F)cc1F [FCZ, Fluconazole, reference compound]
[1]
  Brains sterilized in survivors: 20%
  Clear brains of survivors (mice): 1 of 5
  Infected brain and infected other organs, number of mice among survivors: 4
  Infected brain only, number of mice among survivors: 0
  Infected brain, number of mice among survivors: 4
  Infected kidney, number of mice among survivors: 1
  Infected liver, number of mice among survivors: 4
  Infected lung, number of mice among survivors: 4
  Infected spleen, number of mice among survivors: 3
  Kidney CFU in survivors: number of mice with 0 CFU: 5
  Kidney CFU in survivors: number of mice with 1-2 CFU: 0
  Kidney CFU in survivors: number of mice with 10-20 CFU: 0
  Kidney CFU in survivors: number of mice with TNTC (too numerous to count): 0
  Liver CFU in survivors: number of mice with 0 CFU: 1
  Liver CFU in survivors: number of mice with 1-2 CFU: 1
  Liver CFU in survivors: number of mice with 10-20 CFU: 2
  Liver CFU in survivors: number of mice with TNTC (too numerous to count): 1
  Lung CFU in survivors: number of mice with 0 CFU: 1
  Lung CFU in survivors: number of mice with 1-2 CFU: 2
  Lung CFU in survivors: number of mice with 10-20 CFU: 1
  Lung CFU in survivors: number of mice with TNTC (too numerous to count): 1
  No infection any organ, number of mice (complete sterilization): 1
  Semiquantitative culture, CFU in all organs except the spleen: too numerous to count
  Semiquantitative culture, CFU in spleen: no CFU
  Spleen CFU in survivors: number of mice with 0 CFU: 2
  Spleen CFU in survivors: number of mice with 1-2 CFU: 2
  Spleen CFU in survivors: number of mice with 10-20 CFU: 1
  Spleen CFU in survivors: number of mice with TNTC (too numerous to count): 0
  Survival: 50%
  Survivors: 5/10
[2]
  MFC: > 100 µg/mL
  MIC: 6.25 µg/mL (≈ 20.4 µM)

## C[C@@H]([C@H](N)C(=O)N[C@H](C(=O)O)[C@H]1O[C@@H](n2ccc(=O)[nH]c2=O)[C@H](O)[C@@H]1O)[C@H](O)c1ccc(O)cn1 [nikZ, Nikkomycin Z]
Coccidioides [3]
  Survival: 20%
Coccidioides [4]
  Liver CFU asymptote of dose response curve: about 100 CFU
  Lung fungal count at suppression (dose response curve): below 10 CFU
  Spleen fungal count at suppression (dose response curve): below 10 CFU
  log10 CFU reduction in liver: −1.7 log10 CFU
  log10 CFU reduction in lung: −3.2 log10 CFU
  log10 CFU reduction in spleen: −1.8 log10 CFU
mouse, in vivo
  Cmin as % of Cmax: 1%
mouse, in vivo, po
  Blood level as % of Cmax by 8 hours: about 5%
  Time to reach Cmax: 1 to 2 h
mouse, in vivo, po, 50 mg/kg
  AUC: 13,000
  Cmax: 3,750 ng/ml
  T 1/2: 2.61 h
  Tmax: 1
mouse, in vivo, po, 100 mg/kg
  AUC: 20,600
  Cmax: 4,620 ng/ml
  T 1/2: 2.15 h
  Tmax: 1
mouse, in vivo, po, 300 mg/kg
  AUC: 38,200
  Cmax: 7,950 ng/ml
  T 1/2: 2.26 h
  Tmax: 2
Time 0.5
  Mouse plasma nikZ level: 2920 ng/mL
  Mouse plasma nikZ level, % (of Cmax): 77.9%
Time 1
  Mouse plasma nikZ level: 3750 ng/mL
  Mouse plasma nikZ level, % (of Cmax): 100%
Time 2
  Mouse plasma nikZ level: 2320 ng/mL
  Mouse plasma nikZ level, % (of Cmax): 62% and 61.9%
Time 4
  Mouse plasma nikZ level: 1400 ng/mL
  Mouse plasma nikZ level, % (of Cmax): 37% and 37.3%
Time 8
  Mouse plasma nikZ level: 180 ng/mL
  Mouse plasma nikZ level, % (of Cmax): 4.8%
Time 12
  Mouse plasma nikZ level: 35 ng/mL
  Mouse plasma nikZ level, % (of Cmax): 0.9%
Time 24
  Mouse plasma nikZ level: 7.5 ng/mL
  Mouse plasma nikZ level, % (of Cmax): 0.2%
[5]
  Blood level as % of Cmax by 8 hours: about 5%
  Time to reach Cmax: 1 to 2 h
[6]
  Tolerated oral dose: up to 2000 mg/kg/day
[7]; 100 mg/kg
  Cmax in plasma: 4200 ng/mL
  Tmax in plasma: 2 h
  t1/2 in plasma: 2.2 h
[7]; 300 mg/kg
  Cmax in plasma: 8000 ng/mL
  Tmax in plasma: 1 h
  t1/2 in plasma: 2.3 h
[7]
  Half-life in blood (clearance): 1 to 2 h
[8]
  Blood level as % of Cmax by 8 hours: about 5%
  Time to reach Cmax: 1 to 2 h
[1]
  Brains sterilized in survivors: 86% and 89% and 80%
  Brains sterilized, mice/10 treated: ≥ 6 mice/10
  Clear brains of survivors (mice): 6 of 7 and 8 of 9
  Infected brain, number of mice among survivors: 1 and 2
  Infected kidney, number of mice among survivors: 0
  Infected spleen, number of mice among survivors: 0
  Kidney CFU in survivors: number of mice with 0 CFU: 7 and 9 and 10
  Kidney CFU in survivors: number of mice with 1-2 CFU: 0
  Kidney CFU in survivors: number of mice with 10-20 CFU: 0
  Kidney CFU in survivors: number of mice with TNTC (too numerous to count): 0
  Liver CFU in survivors: number of mice with 0 CFU: 6 and 9 and 10
  Liver CFU in survivors: number of mice with 10-20 CFU: 0
  Liver CFU in survivors: number of mice with TNTC (too numerous to count): 0
  Lung CFU in survivors: number of mice with 0 CFU: 6 and 9
  Lung CFU in survivors: number of mice with 10-20 CFU: 0
  Lung CFU in survivors: number of mice with TNTC (too numerous to count): 0
  No infection any organ, number of mice (complete sterilization): 6 and 8
  Spleen CFU in survivors: number of mice with 0 CFU: 7 and 9 and 10
  Spleen CFU in survivors: number of mice with 1-2 CFU: 0
  Spleen CFU in survivors: number of mice with 10-20 CFU: 0
  Spleen CFU in survivors: number of mice with TNTC (too numerous to count): 0
  Survivors: 7/10 and 9/10 and 10/10
[9]; 100 mg/kg
  Cmax in brain: 0.20 mcg/gm
  Tmax in brain: 2 h
  t1/2 in brain: 6.2 h
[9]; 300 mg/kg
  Cmax in brain: 0.26 mcg/gm
  Tmax in brain: 2 h
  t1/2 in brain: 4.4 h
[10]; human
  Half-life in blood (clearance): 1 to 2 h
[10]; po
  Dose at which tapering in oral uptake efficiency is observed (breakpoint): about 5.5 mg/kg
[2]
  MFC: 2.5 µg/mL (≈ 5.05 µM)
  MIC: 2.5 µg/mL (≈ 5.05 µM)
